Test results from US20050176945A1, “Cloning and characterization of slc26a7 and slc26a9 anion exchangers” (priority 2002, published 2005).

Columns and labels:
SLC26A9 [1] = molecular target: T1, SLC26A9 (Mus musculus, UniProt Q8BU91, G332D/L540F); conditions: 25 mM Cl- added to the medium
T1 sequence (Q8BU91 1-790 G332D/L540F): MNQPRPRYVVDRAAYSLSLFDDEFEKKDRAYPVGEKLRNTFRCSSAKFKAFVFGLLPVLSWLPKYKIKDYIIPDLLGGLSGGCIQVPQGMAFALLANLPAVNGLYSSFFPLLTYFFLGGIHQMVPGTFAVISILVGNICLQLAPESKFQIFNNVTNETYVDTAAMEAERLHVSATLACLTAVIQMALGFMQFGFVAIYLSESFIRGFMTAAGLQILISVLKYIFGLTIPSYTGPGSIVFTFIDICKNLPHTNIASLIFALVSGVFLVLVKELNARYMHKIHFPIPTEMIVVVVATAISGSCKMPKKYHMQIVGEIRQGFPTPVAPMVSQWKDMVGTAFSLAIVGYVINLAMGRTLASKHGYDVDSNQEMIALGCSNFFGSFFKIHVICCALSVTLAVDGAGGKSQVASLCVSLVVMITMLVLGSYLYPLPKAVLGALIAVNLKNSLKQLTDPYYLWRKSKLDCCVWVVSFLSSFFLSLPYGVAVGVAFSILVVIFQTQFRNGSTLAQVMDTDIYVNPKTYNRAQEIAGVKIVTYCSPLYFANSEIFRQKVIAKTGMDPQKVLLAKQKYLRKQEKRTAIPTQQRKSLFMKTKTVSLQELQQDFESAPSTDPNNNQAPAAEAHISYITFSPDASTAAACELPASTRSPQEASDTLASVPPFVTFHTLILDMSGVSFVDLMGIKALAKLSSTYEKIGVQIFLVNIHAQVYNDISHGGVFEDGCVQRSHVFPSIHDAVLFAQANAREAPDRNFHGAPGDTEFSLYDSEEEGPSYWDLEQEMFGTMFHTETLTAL
Experimental: (§1) Oocytes expressing SLC26A2, SLC26A7, or SLC26A9, or control oocytes (H2O) were incubated in medium containing ^35SO4^2− for one hour. (−), Cl^−-free medium; (+), 25 mM Cl^− added to the medium; hr, hour.
(§2) Full-length mouse SLC26A7 and SLC26A9 cDNAs were cloned into the Xenopus expression vector pGEMHE (Liman et al., 1992). SLC26A6 and SLC26A2 constructs were also prepared for use as controls in transport assays (Example 7). Expression constructs were linearized, and cRNA was transcribed in vitro using T7 RNA polymerase and a […] MMACHINE® transcription kit (Ambion, Inc. of Austin, Tex., United States of America). Defolliculated oocytes were injected with 25 nl to 50 nl of water or with a solution containing cRNA at a concentration of 0.5 μg/μl (12.5 ng to 25 ng per oocyte) using a Nanoliter-2000 injector (WPI Instruments of Sarasota, Fla., United States of America). Oocytes were incubated at 17° C. in 50% Leibovitz's L-15 media supplemented with penicillin/streptomycin (1000 units/ml) and glutamine for 2-3 days for uptake assays.
(§3) For sulphate uptake assays, oocytes were pre-incubated for 20 minutes in chloride-free uptake medium (100 mM NMDG gluconate, 2 mM potassium gluconate, 1 mM calcium gluconate, 1 mM magnesium gluconate, 10 mM HEPES-Tris, pH 6.0 or pH 7.5 as indicated), followed by a 60-minute period for uptake in the same medium supplemented with 1 mM K2^35SO4 (40 μCi/ml). The cells were then washed three times in uptake buffer with 5 mM cold K2SO4 to remove tracer activity in the extracellular fluid. The oocytes were dissolved individually in 10% SDS, and tracer activity was determined by scintillation counting. Uptake of chloride, formate, and oxalate was assayed using the same chloride-free uptake solutions, substituting 8.3 mM ^36Cl, 500 μM [^14C]oxalate, or 50 μM [^14C]formate for labeled sulphate. Each uptake experiment included 12-18 oocytes in each experimental group, and results were reported as means±SEM. […]

SLC26A2 = conditions: 25 mM Cl- added to the medium
Experimental: as §1, §2, §3

SLC26A7 [2] = molecular target: T2, SLC26A7 (Mus musculus, UniProt Q8R2Z3, F233L/S639T); conditions: 25 mM Cl- added to the medium
T2 sequence (Q8R2Z3 1-656 F233L/S639T): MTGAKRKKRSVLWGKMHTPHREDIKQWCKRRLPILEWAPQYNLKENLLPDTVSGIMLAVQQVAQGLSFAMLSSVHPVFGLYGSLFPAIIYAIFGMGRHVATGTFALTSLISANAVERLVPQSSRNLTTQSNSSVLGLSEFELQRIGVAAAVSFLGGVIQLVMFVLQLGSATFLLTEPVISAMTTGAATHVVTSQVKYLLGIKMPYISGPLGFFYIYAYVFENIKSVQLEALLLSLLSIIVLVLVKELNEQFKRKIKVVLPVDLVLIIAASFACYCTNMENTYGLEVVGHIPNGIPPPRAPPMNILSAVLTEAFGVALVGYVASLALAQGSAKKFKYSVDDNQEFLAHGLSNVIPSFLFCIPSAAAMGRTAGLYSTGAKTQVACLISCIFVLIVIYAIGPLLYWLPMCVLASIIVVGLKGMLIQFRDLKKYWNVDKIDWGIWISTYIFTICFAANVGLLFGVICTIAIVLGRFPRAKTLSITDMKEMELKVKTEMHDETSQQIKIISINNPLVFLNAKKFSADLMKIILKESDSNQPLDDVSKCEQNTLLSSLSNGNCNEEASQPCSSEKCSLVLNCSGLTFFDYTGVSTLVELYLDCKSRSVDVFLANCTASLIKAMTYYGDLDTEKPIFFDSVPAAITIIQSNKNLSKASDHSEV
Experimental: as §1, §2, §3

SLC26A7 [3] = molecular target: T2, SLC26A7; experiment: 36Cl- uptake in SLC26A7-injected Xenopus oocytes; format: cell-based; design: Full-length mouse SLC26A7 and SLC26A9 cDNAs were cloned into the Xenopus expression vector pGEMHE; expressed in transfected cells; host or cells: Xenopus laevis oocytes injected with cRNA transcribed in vitro from pGEMHE; conditions: 1 mM DIDS, pH 6.0, isotonic and hypotonic conditions
Experimental: FIG. 3A is a bar graph that depicts ^36Cl^− uptake (pmol/oocyte/h) as a function of extracellular osmolality and pH in SLC26A7-injected oocytes (A7) and water injected control oocytes (H2O). Oocytes were incubated during the pre-uptake period and uptake period at varying osmolaltiy at either pH 7.4 (open bars), pH 6.0 (black bars), or at pH 6.0 in the presence of 1 mM DIDS (grey bars). ISO, isotonic osmolality, 210 mOsm/kg; HYPO, hypotonic osmolality, 120 mOsm/kg; HYPER, hypertonic osmolality, 300 mOsm/kg; h, hour.

SLC26A9 [4] = molecular target: T1, SLC26A9; experiment: 36Cl- uptake (Cl-Cl exchange) in SLC26A9-injected Xenopus oocytes; format: cell-based; design: Full-length mouse SLC26A7 and SLC26A9 cDNAs were cloned into the Xenopus expression vector pGEMHE; expressed in transfected cells; host or cells: Xenopus laevis oocytes injected with cRNA transcribed in vitro from pGEMHE; conditions: 1 mM DIDS, pH 6.0
Experimental: FIG. 3B is a bar graph that depicts DIDS inhibition of ^36Cl^− uptake (pmol/oocyte/h) in SLC26A9injected oocytes (Slc26a9) and water-injected control oocytes (H2O). Oocytes were incubated during the pre-uptake period and uptake period at either pH 7.4 (open bars), pH 6.0 (black bars), or at pH 6.0 in the presence of 1 mM DIDS (grey bars). H, hour.
FIG. 3C is a bar graph that depicts a lack of cis-inhibition of Cl^−-Cl^− exchange in oocytes expressing SLC26A9 or in control oocytes (H2O). Oocytes were incubated in medium containing ^36Cl^− for one hour in the absence (control) or presence of 25 mM of the indicated anions.

Row | DIDS sensitivity of SLC26A7 36Cl- uptake activity (SLC26A7 [3]) | DIDS sensitivity of Cl-Cl exchange mediated by SLC26A9 (SLC26A9 [4]) | Compound | effect of extracellular Cl- on 35SO4 2- uptake in SLC26A9-injected oocytes (SLC26A9 [1]) | effect of extracellular Cl- on 35SO4 2- uptake by SLC26A2 (SLC26A2) | effect of extracellular Cl- on 35SO4 2- uptake in SLC26A7-injected oocytes (SLC26A7 [2])
1 | – | – | Cl [Cl^−, chloride] | without activating | significantly inhibited | without activating
2 | modestly DIDS-sensitive | moderately sensitive | O=S(=O)(O)c1cc(N=C=S)ccc1C=Cc1ccc(N=C=S)cc1S(=O)(=O)O [DIDS, 4,4′-diisothiocyanatostilbene-2,2′-disulfonic acid] | – | – | –
